We go through 14 compounds from patent US20250073340A1, “SPIROCYCLIC MDM2 MODULATOR AND USES THEREOF” (Newave Pharmaceutical Inc., priority 2021, published 2025).

In assay [1] the test system is BCL-2-dependent acute lymphoblastic leukemia (ALL) cell line RS4;11 overexpressing Bcl-2 G101V. Briefly: cells. The following applies: Homo sapiens, RS4-11; about 72 hours, ATPlite luminescence; read-out: RS4;11-G101V IC50. Type of assay: cell-based. The essentials: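 About 1×10^4 cells per well treated with compound for about 72 hours in medium with 5% FBS or 10% normal human serum. Viability from ATP-based luminescence (ATPlite) after lysis; IC50 derived from dose range.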

Assay [2] concerns the target MDM2 (Homo sapiens (Human), UniProt Q00987). The experiment in a line: In vitro MDM2 HTRF assay (inhibition of p53-MDM2 interaction). Format: binding. The following applies: GST-MDM2 / biotinylated p53 peptide.

Sequence of MDM2 (Q00987 whole entry): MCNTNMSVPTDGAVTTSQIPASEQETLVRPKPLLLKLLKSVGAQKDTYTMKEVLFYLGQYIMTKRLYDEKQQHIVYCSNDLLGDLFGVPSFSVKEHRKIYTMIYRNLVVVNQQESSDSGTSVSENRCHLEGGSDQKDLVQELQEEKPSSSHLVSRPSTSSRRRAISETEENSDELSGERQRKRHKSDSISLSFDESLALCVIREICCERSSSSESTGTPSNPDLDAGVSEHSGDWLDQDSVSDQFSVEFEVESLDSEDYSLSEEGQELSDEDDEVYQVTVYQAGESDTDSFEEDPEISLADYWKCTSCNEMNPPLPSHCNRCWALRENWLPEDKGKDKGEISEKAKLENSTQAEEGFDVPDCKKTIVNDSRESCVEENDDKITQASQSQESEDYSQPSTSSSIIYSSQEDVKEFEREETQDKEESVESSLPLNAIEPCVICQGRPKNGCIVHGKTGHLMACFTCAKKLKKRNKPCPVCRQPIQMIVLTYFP

`COc1cc(N2CCC3(CC2)CC([C@H]2C[C@@H]2C#Cc2cccc4c2CN(C2CCC(=O)NC2=O)C4=O)C3)ccc1NC(=O)[C@@H]1N[C@@H](CC(C)(C)C)[C@@]2(CNc3cc(Cl)ccc32)[C@H]1c1cccc(Cl)c1F` (stereo partly drawn) [Example 23, (2′S,3S,4′S,5′R)-6-chloro-4′-(3-chloro-2-fluorophenyl)-N-(4-(2-((1R,2S)-2-((2-(2,6-dioxopiperidin-3-yl)-1-oxoisoindolin-4-yl)ethynyl)cyclopropyl)-7-azaspiro[3.5]nonan-7-yl)-2-methoxyphenyl)-2′-neopentylspiro[indoline-3,3′-pyrrolidine]-5′-carboxamide]: the IC50 in assay [1] was > 1000 nM; in assay [2], 169 nM.
With `COc1cc(C(=O)N2CCC3(CC2)C[C@@H]3C#Cc2cccc3c2CN(C2CCC(=O)NC2=O)C3=O)ccc1NC(=O)[C@@H]1N[C@@H](CC(C)(C)C)[C@@]2(CNc3cc(Cl)ccc32)[C@H]1c1cccc(Cl)c1F` (stereo partly drawn) [Example 44, (2′S,3S,4′S,5′R)-6-chloro-4′-(3-chloro-2-fluorophenyl)-2′-(2,2-dimethylpropyl)-N-{4-[(1S)-1-{2-[2-(2,6-dioxopiperidin-3-yl)-1-oxo-3H-isoindol-4-yl]ethynyl}-6-azaspiro[2.5]octane-6-carbonyl]-2-methoxyphenyl}-1,2-dihydrospiro[indole-3,3′-pyrrolidine]-5′-carboxamide], the IC50 was found to be 13.1 nM in assay [1] and 1.83 nM in assay [2].
As to `COc1cc(N2CCC([C@H]3C[C@@H]3C#Cc3cccc4c3CN(C3CCC(=O)NC3=O)C4=O)CC2)ccc1NC(=O)[C@@H]1N[C@@H](CC(C)(C)C)[C@@]2(CNc3cc(Cl)ccc32)[C@H]1c1cccc(Cl)c1F` (stereo partly drawn) [Example 27, (2′S,3S,4′S,5′R)-6-chloro-4′-(3-chloro-2-fluorophenyl)-2′-(2,2-dimethylpropyl)-N-(4-{4-[(1R,2S)-2-{2-[2-(2,6-dioxopiperidin-3-yl)-1-oxo-3H-isoindol-4-yl]ethynyl}cyclopropyl]piperidin-1-yl}-2-methoxyphenyl)-1,2-dihydrospiro[indole-3,3′-pyrrolidine]-5′-carboxamide], the IC50 is > 1000 nM in assay [1] and 16.5 nM in assay [2].
In the case of `COc1cc(C(=O)N[C@H]2CCC[C@@H](C#Cc3cccc4c3CN(C3CCC(=O)NC3=O)C4=O)C2)ccc1NC(=O)[C@@H]1N[C@@H](CC(C)(C)C)[C@@]2(CNc3cc(Cl)ccc32)[C@H]1c1cccc(Cl)c1F` (stereo partly drawn) [Example 32, (2′S,3S,4′S,5′R)-6-chloro-4′-(3-chloro-2-fluorophenyl)-2′-(2,2-dimethylpropyl)-N-(4-{[(1S,3R)-3-{2-[2-(2,6-dioxopiperidin-3-yl)-1-oxo-3H-isoindol-4-yl]ethynyl}cyclohexyl]carbamoyl}-2-methoxyphenyl)-1,2-dihydrospiro[indole-3,3′-pyrrolidine]-5′-carboxamide], the values for the IC50 in assay [1] and in assay [2] were 83.2 nM and 2.59 nM, respectively.
For `COc1cc(C(=O)N[C@@H]2CCC[C@@H](C#Cc3cccc4c3CN(C3CCC(=O)NC3=O)C4=O)C2)ccc1NC(=O)[C@@H]1N[C@@H](CC(C)(C)C)[C@@]2(CNc3cc(Cl)ccc32)[C@H]1c1cccc(Cl)c1F` (stereo partly drawn) [Example 34, (2′S,3S,4′S,5′R)-6-chloro-4′-(3-chloro-2-fluorophenyl)-2′-(2,2-dimethylpropyl)-N-(4-{[(1R,3R)-3-{2-[2-(2,6-dioxopiperidin-3-yl)-1-oxo-3H-isoindol-4-yl]ethynyl}cyclohexyl]carbamoyl}-2-methoxyphenyl)-1,2-dihydrospiro[indole-3,3′-pyrrolidine]-5′-carboxamide] the same measures were 122 nM and 2 nM.
For `CC(C)(C)C[C@@H]1N[C@@H](C(=O)N2CCOc3cc(C(N)=O)ccc32)[C@H](c2cccc(Cl)c2F)[C@]12CNc1cc(Cl)ccc12` [Example 14, 4-((2′S,3S,4′S,5′R)-6-chloro-4′-(3-chloro-2-fluorophenyl)-2′-neopentylspiro[indoline-3,3′-pyrrolidine]-5′-carbonyl)-3,4-dihydro-2H-benzo[b][1,4]oxazine-7-carboxamide], in that order: > 1000 nM and 114 nM.
Take `COc1cc(C(=O)N2CCCC[C@@H]2CCC#Cc2cccc3c2CN([C@H]2CCC(=O)NC2=O)C3=O)ccc1NC(=O)[C@@H]1N[C@@H](CC(C)(C)C)[C@@]2(CNc3cc(Cl)ccc32)[C@H]1c1cccc(Cl)c1F` [Example 37, (2′S,3S,4′S,5′R)-6-chloro-4′-(3-chloro-2-fluorophenyl)-2′-(2,2-dimethylpropyl)-N-{4-[(2R)-2-(4-{2-[(3S)-2,6-dioxopiperidin-3-yl]-1-oxo-3H-isoindol-4-yl}but-3-yn-1-yl)piperidine-1-carbonyl]-2-methoxyphenyl}-1,2-dihydrospiro[indole-3,3′-pyrrolidine]-5′-carboxamide]: the IC50 came out at 34.4 nM in assay [1] and 1.95 nM in assay [2].
For `COc1cc(C(=O)N2CCCC[C@H]2CCC#Cc2cccc3c2CN([C@H]2CCC(=O)NC2=O)C3=O)ccc1NC(=O)[C@@H]1N[C@@H](CC(C)(C)C)[C@@]2(CNc3cc(Cl)ccc32)[C@H]1c1cccc(Cl)c1F` [Example 39, (2′S,3S,4′S,5′R)-6-chloro-4′-(3-chloro-2-fluorophenyl)-2′-(2,2-dimethylpropyl)-N-{4-[(2S)-2-(4-{2-[(3S)-2,6-dioxopiperidin-3-yl]-1-oxo-3H-isoindol-4-yl}but-3-yn-1-yl)piperidine-1-carbonyl]-2-methoxyphenyl}-1,2-dihydrospiro[indole-3,3′-pyrrolidine]-5′-carboxamide] the same measures were 127 nM and 2.67 nM.
As to `COc1cc(C(=O)N2CC[C@@H](C#Cc3cccc4c3CN(C3CCC(=O)NC3=O)C4=O)C2)ccc1NC(=O)[C@@H]1N[C@@H](CC(C)(C)C)[C@@]2(CNc3cc(Cl)ccc32)[C@H]1c1cccc(Cl)c1F` (stereo partly drawn) [Example 49, (2′S,3S,4′S,5′R)-6-chloro-4′-(3-chloro-2-fluorophenyl)-2′-(2,2-dimethylpropyl)-N-{4-[(3S)-3-{2-[2-(2,6-dioxopiperidin-3-yl)-1-oxo-3H-isoindol-4-yl]ethynyl}pyrrolidine-1-carbonyl]-2-methoxyphenyl}-1,2-dihydrospiro[indole-3,3′-pyrrolidine]-5′-carboxamide], the IC50 in assay [1] was found to be 14.1 nM; in assay [2] it was 1.05 nM.
For `COc1cc(N2CCC3(CC2)CC([C@@H]2C[C@H]2C#Cc2cccc4c2CN(C2CCC(=O)NC2=O)C4=O)C3)ccc1NC(=O)[C@@H]1N[C@@H](CC(C)(C)C)[C@@]2(CNc3cc(Cl)ccc32)[C@H]1c1cccc(Cl)c1F` (stereo partly drawn) [Example 22, (2′S,3S,4′S,5′R)-6-chloro-4′-(3-chloro-2-fluorophenyl)-N-(4-(2-((1S,2R)-2-((2-(2,6-dioxopiperidin-3-yl)-1-oxoisoindolin-4-yl)ethynyl)cyclopropyl)-7-azaspiro[3.5]nonan-7-yl)-2-methoxyphenyl)-2′-neopentylspiro[indoline-3,3′-pyrrolidine]-5′-carboxamide], in that order: > 1000 nM and 272 nM.
Turning to `COc1cc(C(=O)N2CCCC[C@H]2CCC#Cc2cccc3c2CN([C@@H]2CCC(=O)NC2=O)C3=O)ccc1NC(=O)[C@@H]1N[C@@H](CC(C)(C)C)[C@@]2(CNc3cc(Cl)ccc32)[C@H]1c1cccc(Cl)c1F` [Example 38, (2′S,3S,4′S,5′R)-6-chloro-4′-(3-chloro-2-fluorophenyl)-2′-(2,2-dimethylpropyl)-N-{4-[(2S)-2-(4-{2-[(3R)-2,6-dioxopiperidin-3-yl]-1-oxo-3H-isoindol-4-yl}but-3-yn-1-yl)piperidine-1-carbonyl]-2-methoxyphenyl}-1,2-dihydrospiro[indole-3,3′-pyrrolidine]-5′-carboxamide], the figures for the IC50 in assay [1] and in assay [2] were 67.9 nM and 3.82 nM, respectively.
Consider `COc1cc(C(=O)N2CCC3(CC2)C[C@@H]3C#Cc2cccc3c2CN([C@H]2CCC(=O)NC2=O)C3=O)ccc1NC(=O)[C@@H]1N[C@@H](CC(C)(C)C)[C@@]2(CNc3cc(C(F)(F)F)ncc32)[C@H]1c1cccc(Cl)c1F` [Example 56, (2S,3S,4S,5R)-4-(3-chloro-2-fluorophenyl)-N-(4-((S)-1-((2-((S)-2,6-dioxopiperidin-3-yl)-1-oxoisoindolin-4-yl)ethynyl)-6-azaspiro[2.5]octane-6-carbonyl)-2-methoxyphenyl)-2-neopentyl-6′-(trifluoromethyl)-1′,2′-dihydrospiro[pyrrolidine-3,3′-pyrrolo[3,2-c]pyridine]-5-carboxamide], for which the IC50 in assay [1] was 1.09 nM; in assay [2], 23.4 nM.
`COc1cc(C(=O)N2CCC[C@@H](CC#Cc3cccc4c3CN(C3CCC(=O)NC3=O)C4=O)C2)ccc1NC(=O)[C@@H]1N[C@@H](CC(C)(C)C)[C@@]2(CNc3cc(Cl)ccc32)[C@H]1c1cccc(Cl)c1F` (stereo partly drawn) [Example 25, (2′S,3S,4′S,5′R)-6-chloro-4′-(3-chloro-2-fluorophenyl)-N-(4-((3S)-3-(3-(2-(2,6-dioxopiperidin-3-yl)-1-oxoisoindolin-4-yl)prop-2-yn-1-yl)piperidine-1-carbonyl)-2-methoxyphenyl)-2′-neopentylspiro[indoline-3,3′-pyrrolidine]-5′-carboxamide]: the IC50 in assay [1] was 21.6 nM; in assay [2], 3.72 nM.
For `CC(C)(C)C[C@H]1N[C@H](C(=O)N2CCOc3cc(C(N)=O)ccc32)[C@@H](c2cccc(Cl)c2F)[C@@]12CNc1cc(Cl)ccc12` [Example 15, 4-((2′R,3R,4′R,5′S)-6-chloro-4′-(3-chloro-2-fluorophenyl)-2′-neopentylspiro[indoline-3,3′-pyrrolidine]-5′-carbonyl)-3,4-dihydro-2H-benzo[b][1,4]oxazine-7-carboxamide], in that order: > 1000 nM and 638 nM.
